Data: patent US20120065126A1, “Pharmaceutical Compositions Containing Antifungal Peptides” (BASF SE, priority 2009, published 2012)
Ends that are not written are not given here.

How the values were obtained:
Malassezia furfur = assay: Growth inhibition at equal concentrations by weight of P18, zinc pyrithione, climbazole, ketoconazole (CFU); assay type: cell-based
Procedure: (§1) The studies described hereinafter were conducted on the Malassezia furfur strain DSM 6170.
For this purpose, the procedure was as follows:
(§2) The growth test was effected as follows: a shake culture containing M472 Pityrosporum medium was inoculated with M. furfur and incubated with shaking at 30° C. and 200 rpm overnight.
A 96-well microtiter plate was filled with 100 μl per well of M472 Pityrosporum medium and inoculated with M. furfur suspension from the overnight culture. The M. furfur suspension was adjusted at the start of the experiment to an optical density, measured at 600 nm, of 0.02. The concentrates of the inhibitor solutions were 1 mM in DMSO for P18 peptide and 10 mM in DMSO for zinc pyrithione, ketoconazole and climbazole. The final DMSO concentration was kept the same in all experiments.
The following growth was compared by measuring the optical density: • M. furfur suspension and addition of the P18 solution with a final concentration of 50 μM (corresponds to 0.0115% (w/w)) • M. furfur suspension and addition of the zinc pyrithione (ZPT) solution with a final concentration of 362 μM (comparison to the mixture containing 50 μM P18 peptide) • M. furfur suspension and addition of the ketoconazole solution with a final concentration of 216 μM (comparison to the mixture containing 50 μM P18 peptide) • M. furfur suspension and addition of the climbazole solution with a final concentration of 390 μM (comparison to the mixture containing 50 μM P18 peptide)
The microtiter plate was incubated with shaking at 30° C.
[…] After incubation over the course of 6 days, the colonies on the plate were counted. The CFU was determined in order to rule out any influence of the biphasic medium, and also the growth form of M. furfur, on the optical density. The experiments were each conducted in double determination, at least in two independent experiments.

M. furfur DSM 6170 = assay: Comparison of further inventive peptides and AFPP (CFU); assay type: cell-based, Malassezia furfur; conditions: 0.3%; 10 minutes
Text: In order to compare the effect of other inventive peptides with the effect of the antifungal polypeptide AFPP from Aspergillus giganteus on the growth of Malassezia furfur, the procedure was as follows:
As a comparison, the peptide variants with SEQ ID NO. 4726 (sequence: FKKALHLFKPIKKFLKWK-NH2 (Bachem AG, Switzerland)) and SEQ ID NO. 4727 (sequence: KFLHLAKKFPKWKLFKKI-NH2 (Bachem AG, Switzerland)) were selected. The peptide and AFPP concentrates were in the form of 2% (w/w) solutions in phosphate buffer (10 mM sodium phosphate, pH 7.5, 100 mM NaCl). […]
For each test mixture, a 1.5 ml reaction vessel was filled with Pityrosporum medium and inoculated with the M. furfur overnight culture to give a start OD of 0.1, measured at 600 nm.
The growth of the following test mixtures was monitored: • M. furfur suspension and addition of 90 μl of phosphate buffer (in order to rule out any influence of the phosphate buffer on the effect of the active peptides at a final concentration of 0.3%) • M. furfur suspension with a final concentration of the inventive peptide variant with SEQ ID NO. […]
The reaction volume was 600 μl in each case. […] The CFU (colony forming units) were determined by counting after incubation at 30° C. for 6 days. […]

M. furfur = assay: Effect of P18 variants (CFU); assay type: cell-based, Malassezia furfur; conditions: 50 μM peptide, with DMSO; 24 h
Procedure: as §1
The inhibitory effect of the following P18 variants on M. furfur was studied:
as §2
A 96-well microtiter plate was filled with 100 μl per well of M472 Pityrosporum medium and inoculated with M. furfur suspension from the overnight culture. The M. furfur suspension was adjusted at the start of the experiment to an optical density, measured at 600 nm, of 0.1.
The peptide variants were dissolved with a final concentration of 1 mM in dimethyl sulfoxide (DMSO). It is also possible to dispense with DMSO and to use a purely aqueous peptide solution. 5 μl of this solution were added to 100 μl of M. furfur suspension (final concentration of the P18 peptide 50 μM). In a control mixture, the same amount of DMSO without P18 peptide was added.
The microtiter plate was incubated with shaking at 30°.
After 24 h, the colony forming units (CFU) were determined by streaking 10 μl of each of the suspensions and, after incubation over the course of 6 days, counting the colonies. Two independent experiments each with three identical mixtures were conducted, and the number of colony forming units was averaged.

Row | Compound | Colony forming units after the incubation time specified (M. furfur DSM 6170) | Averaged number of colony forming units (CFU) (M. furfur) | further results
1 | CC(C)(C)C(=O)C(Oc1ccc(Cl)cc1)n1ccnc1 (centres unmarked) [climbazole] | – | – | Colony forming units (CFU) (Malassezia furfur; final conc. 390 μM, 24 h): 137 ± 33 CFU; Colony forming units (CFU) (Malassezia furfur; final conc. 390 μM, 40 h): 35 ± 15 CFU
2 | CC(=O)N1CCN(c2ccc(OCC3COC(Cn4ccnc4)(c4ccc(Cl)cc4Cl)O3)cc2)CC1 (centres unmarked) [ketoconazole] | – | – | Colony forming units (CFU) (Malassezia furfur; final conc. 216 μM, 24 h): 84 ± 76 CFU; Colony forming units (CFU) (Malassezia furfur; final conc. 216 μM, 40 h): 9 ± 5 CFU
3 | FKKALHLFKPIKKFLKWK-NH2 [Peptide variant SEQ ID NO. 4726] | 3 ± 1 CFU | – | –
4 | H-KWKLFKKIPKFLHLAKKF-OH [P18-OH] | – | 3 CFU | –
5 | H-PKWKLFKKIPKFLHLAKKFD-OH [P18AC-OH] | – | 37 CFU | –
6 | KFLHLAKKFPKWKLFKKI-NH2 [Peptide variant SEQ ID NO. 4727] | 59 ± 46 CFU | – | –
